{"source": "patent US10563205B2", "about": "“Nucleic acid aptamer AS1411 modified DNA tetrahedron and preparation method thereof” (Sichuan University, priority 2016, dated 2020)", "test_system": "tumor cells A549", "assay": "MTS proliferation test of tumor cells A549", "format": "cell-based", "conditions": "A549, 0-3.2 μM, 1.5 h exposure, then 48 h culture", "experimental": "Plating the cultured tumor cells A549 in 96-well cell culture plates (100 μL, 5×10^4 cell/well), adding pure Adriamycin or samples with predetermined concentrations (0, 0.1 μM, 0.2 μM, 0.4 μM, 0.8 μM, 1.6 μM, 3.2 μM) into the wells respectively, culturing in a cell incubator for 1.5 h, centrifuging, removing the cell culture medium in the supernatant, adding fresh culture medium to continue culturing for 48 h, then testing the proliferation rate of the cells using a MTS reagent.", "data": [{"compound": "COc1cccc2c1C(=O)c1c(O)c3c(c(O)c1C2=O)C[C@@](O)(C(=O)CO)C[C@@H]3O[C@H]1C[C@H](N)[C@H](O)[C@H](C)O1", "note": "[Adriamycin]", "values": [{"measurement": "inhibitory effect against tumor cells as the concentration increases (proliferation rate, MTS)", "value": "increases gradually"}]}]}
